The data set is described as follows: light fastness test (xenon fadeometer, percentage fading). Format: physicochemical. As to conditions: 70 kJ/m^2. The procedure:
The light fastness test was conducted as follows.
Irradiation was conducted by means of a xenon fadeometer Ci35A (manufactured by Atlas) under conditions of a black panel temperature of 50° C. and an integrating irradiation energy of 70 kJ/m^2.
The percentage fading was determined from a density change around an initial density of 1.0 according to the following equation.
Percentage fading=(1-I/I0)×100 (%)
I=optical density after irradiation; and
I0 =optical density before irradiation.
.largecircle.: less than 20% in the percentage fading
X : 20% or more in the percentage fading

Where [1] appears, read: Table A3, Comparative Examples A1-A6, 50° C.
Where [2] appears, read: Table B3, Comparative Examples B1-B6, 50° C.
The mark [3] stands for this setting: Table C (C3), Comparative Examples C1-C6, 50° C.
The mark [4] stands for this setting: Table B2, dyes of Table B1, 50° C.
Where [5] appears, read: Table C2, dyes of Table C1, 50° C.

On to `CNc1ccc(NC)c2c1C(=O)c1ccccc1C2=O` [Comp. Ex. A1, C.I. Disperse Blue 14, reference compound], for which the Light fastness entry under setting [1] is recorded as “Δ”, the Light fastness result under setting [2] is listed as “Δ” and the Light fastness result under setting [3] is given as “Δ”.

Take `CC(C)Nc1ccc(NC(C)C)c2c1C(=O)c1ccccc1C2=O` [Comp. Ex. A2, C.I. Disperse Blue 134, reference compound]: the Light fastness entry is, setting by setting: under setting [1], “Δ”; under setting [2], “Δ”; under setting [3], “Δ”. Consider `CNc1ccc(Nc2cccc(C)c2)c2c1C(=O)c1ccccc1C2=O` [Comp. Ex. A3, C.I. Solvent Blue 63, reference compound], for which the Light fastness entry under setting [1] is given as “Δ”, the Light fastness result under setting [2] is recorded as “Δ” and the Light fastness result under setting [3] was “Δ”. On to `CNc1ccc(O)c2c1C(=O)c1c(O)ccc(NC)c1C2=O` [Comp. Ex. A4, C.I. Disperse Blue 26, reference compound], for which the Light fastness result was “Δ” under setting [1], “Δ” under setting [2] and “Δ” under setting [3]. For the molecule `CNc1ccc(N)c2c1C(=O)c1ccccc1C2=O` [Comp. Ex. A5, C.I. Disperse Violet 4, reference compound], the Light fastness entry runs as follows: under setting [1], “Δ”; under setting [2], “Δ”; under setting [3], “Δ”. Consider `CCN(CC)c1ccc(N=C2C=C(NC(=O)c3ccccc3)C(=O)C(Cl)=C2C)c(C)c1` [Comparative Example A6, reference compound], for which the Light fastness result under setting [1] is “.largecircle. (less than 20% in the percentage fading)”. As to `CCN(CC)c1ccc(N=C2C=C(NC(=O)c3ccccc3)C(=O)C(Cl)=C2C)c(C)c1` [Comparative Example B6, reference compound], the Light fastness result under setting [2] was “.largecircle. (less than 20% in the percentage fading)”. As for `CCN(CC)c1ccc(N=C2C=C(NC(=O)c3ccccc3)C(=O)C(Cl)=C2C)c(C)c1` [Comparative Example C6, reference compound], under setting [3], the Light fastness result is on record as “.largecircle. (less than 20% in the percentage fading)”.

On to `CCN(CC)c1ccc(N=C2C=C(NC(=O)C3CC=CCC3)C(=O)C(Cl)=C2C)c(C)c1` (centres unmarked) [Dye No. 1 in Table B1], for which the Light fastness entry under setting [4] is “.largecircle. (less than 20% in the percentage fading)”.

As to `CCN(CC)c1ccc(N=C2C=C(NC(=O)C3CC4C=CC3C4)C(=O)C(Cl)=C2C)c(C)c1` (centres unmarked) [Dye No. 1 in Table C1], the Light fastness entry under setting [5] is “.largecircle. (less than 20% in the percentage fading)”. As to `CCN(CCO)c1ccc(N=C2C=C(NC(=O)C3CC=CCC3)C(=O)C(Cl)=C2C)c(C)c1` (centres unmarked) [Dye No. 2 in Table B1], the Light fastness entry under setting [4] is reported as “.largecircle. (less than 20% in the percentage fading)”.

Turning to `CCN(CC)c1ccc(N=C2C=CC(=O)C(NC(=O)C3CC4C=CC3C4)=C2)c(C)c1` (centres unmarked) [Dye No. 2 in Table C1], the Light fastness entry under setting [5] is listed as “.largecircle. (less than 20% in the percentage fading)”. For `CCN(CC)c1ccc(N=C2C=C(NC(=O)C3CC=CCC3)C(=O)C=C2NC(C)=O)c(C)c1` (centres unmarked) [Dye No. 3 in Table B1], the Light fastness entry under setting [4] is “.largecircle. (less than 20% in the percentage fading)”. Regarding `CCN(CCO)c1ccc(N=C2C=C(NC(=O)C3CC4C=CC3C4)C(=O)C(Cl)=C2C)c(C)c1` (centres unmarked) [Dye No. 3 in Table C1], the Light fastness entry under setting [5] is “.largecircle. (less than 20% in the percentage fading)”. On to `CCOc1cc(N(CC)CC)ccc1N=C1C=CC(=O)C(NC(=O)C2CC=CCC2)=C1` (centres unmarked) [Dye No. 4 in Table B1], for which the Light fastness result under setting [4] is “.largecircle. (less than 20% in the percentage fading)”.

On to `CCN(CC)c1ccc(N=C2C=C(NC(=O)C3CC4C=CC3C4)C(=O)C=C2NC(C)=O)c(C)c1` (centres unmarked) [Dye No. 4 in Table C1], for which, under setting [5], the Light fastness entry was “.largecircle. (less than 20% in the percentage fading)”. With `CCC1=C(Cl)C(=O)C(NC(=O)C2CC=CCC2)=CC1=Nc1ccc(N(CC)CC)cc1C` (centres unmarked) [Dye No. 5 in Table B1], the Light fastness entry under setting [4] is listed as “.largecircle. (less than 20% in the percentage fading)”.

In the case of `CCOc1cc(N(CC)CC)ccc1N=C1C=CC(=O)C(NC(=O)C2CC3C=CC2C3)=C1` (centres unmarked) [Dye No. 5 in Table C1], the Light fastness result under setting [5] is “.largecircle. (less than 20% in the percentage fading)”. In the case of `CCN(CC)c1ccc(N=C2C=C(NC(=O)C3CC=CCC3)C(=O)C(Cl)=C2C)c(NC(C)=O)c1` (centres unmarked) [Dye No. 6 in Table B1], under setting [4], the Light fastness entry is “.largecircle. (less than 20% in the percentage fading)”. In the case of `CCN(CC)c1ccc(N=C2C=C(NC(=O)C3CC4C=CC3C4)C(=O)C(Cl)=C2C)cc1` (centres unmarked) [Dye No. 6 in Table C1], the Light fastness entry under setting [5] was “.largecircle. (less than 20% in the percentage fading)”.

For the molecule `CCN(CCCl)c1ccc(N=C2C=C(NC(=O)C3CC=CCC3)C(=O)C(Cl)=C2C)c(NC(=O)NC)c1` (centres unmarked) [Dye No. 7 in Table B1], the Light fastness entry under setting [4] was “.largecircle. (less than 20% in the percentage fading)”. Take `CCC1=C(Cl)C(=O)C(NC(=O)C2CC3C=CC2C3)=CC1=Nc1ccc(N(CC)CC)cc1C` (centres unmarked) [Dye No. 7 in Table C1]: the Light fastness result under setting [5] was “.largecircle. (less than 20% in the percentage fading)”.

For `CCOc1cc(N(CC)CC)ccc1N=C1C=CC(=O)C(NC(=O)C2C=CCCC2)=C1` (centres unmarked) [Dye No. 8 in Table B1], the Light fastness entry under setting [4] was “.largecircle. (less than 20% in the percentage fading)”. Consider `CCN(CC)c1ccc(N=C2C=C(NC(=O)C3CC4C=CC3C4)C(=O)C(Cl)=C2C)c(NC(C)=O)c1` (centres unmarked) [Dye No. 8 in Table C1], for which the Light fastness entry under setting [5] is given as “.largecircle. (less than 20% in the percentage fading)”. As to `CCOc1cc(N(CC)CCO)ccc1N=C1C=C(NC(=O)C2=CCCCC2)C(=O)C=C1NC(C)=O` [Dye No. 9 in Table B1], under setting [4], the Light fastness entry is “.largecircle. (less than 20% in the percentage fading)”. Regarding `CCN(CCCl)c1ccc(N=C2C=C(NC(=O)C3CC4C=CC3C4)C(=O)C(Cl)=C2C)c(NC(=O)NC)c1` (centres unmarked) [Dye No. 9 in Table C1], the Light fastness result under setting [5] was “.largecircle. (less than 20% in the percentage fading)”.

With `CCN(CC)c1ccc(N=C2C=C(NC(=O)C3=CCC=CC3)C(=O)C(Cl)=C2C)c(C)c1` [Dye No. 10 in Table B1], under setting [4], the Light fastness result is reported as “.largecircle. (less than 20% in the percentage fading)”. On to `CCOc1cc(N(CC)CCO)ccc1N=C1C=C(NC(=O)C2CC3C=CC2C3)C(=O)C=C1NC(C)=O` (centres unmarked) [Dye No. 10 in Table C1], for which the Light fastness result under setting [5] is listed as “.largecircle. (less than 20% in the percentage fading)”. On to `CCN(CC)c1ccc(N=C2C=CC(=O)C(NC(=O)C3C=CCC=C3)=C2)c(NC(C)=O)c1` [Dye No. 11 in Table B1], for which the Light fastness result under setting [4] is “.largecircle. (less than 20% in the percentage fading)”. With `CCN(CC)c1ccc(N=C2C=C(NC(=O)C3=CC4C=CC3C4)C(=O)C(Cl)=C2C)c(C)c1` (centres unmarked) [Dye No. 11 in Table C1], the Light fastness entry under setting [5] is “.largecircle. (less than 20% in the percentage fading)”.

In the case of `CCN(CC)c1ccc(N=C2C=CC(=O)C(NC(=O)C3=CC4C=CC3C4)=C2)c(NC(C)=O)c1` (centres unmarked) [Dye No. 12 in Table C1], the Light fastness entry under setting [5] was “.largecircle. (less than 20% in the percentage fading)”. `CCN(CCC#N)c1ccc(N=C2C=C(NC(=O)C3CC=CC3)C(=O)C(Cl)=C2C)c(NS(C)(=O)=O)c1` [Dye No. 13 in Table B1]: the Light fastness result under setting [4] is listed as “.largecircle. (less than 20% in the percentage fading)”. Turning to `CCN(Cc1ccccc1)c1ccc(N=C2C=C(NC(=O)C3=CC4C=CC3C4)C(=O)C=C2NC(C)=O)cc1` (centres unmarked) [Dye No. 13 in Table C1], the Light fastness entry under setting [5] is “.largecircle. (less than 20% in the percentage fading)”. Take `CCN(CCNS(C)(=O)=O)c1ccc(N=C2C=C(NC(=O)C3CC=CC3)C(=O)C=C2NS(C)(=O)=O)c(C)c1` [Dye No. 14 in Table B1]: under setting [4], the Light fastness result was “.largecircle. (less than 20% in the percentage fading)”.

Regarding `CCN(CCC#N)c1ccc(N=C2C=C(NC(=O)C3=CC4C=CC3C4)C(=O)C(Cl)=C2C)c(NS(C)(=O)=O)c1` (centres unmarked) [Dye No. 14 in Table C1], under setting [5], the Light fastness result is listed as “.largecircle. (less than 20% in the percentage fading)”. In the case of `CCN(c1ccccc1)c1ccc(N=C2C=C(NC(=O)C3CC=CC3)C(=O)C=C2NC(=O)NC)c(Cl)c1` [Dye No. 15 in Table B1], under setting [4], the Light fastness entry was “.largecircle. (less than 20% in the percentage fading)”.

For `CCN(c1ccccc1)c1ccc(N=C2C=C(NC(=O)C3=CC4C=CC3C4)C(=O)C=C2NC(=O)NC)c(Cl)c1` (centres unmarked) [Dye No. 15 in Table C1], under setting [5], the Light fastness result is reported as “.largecircle. (less than 20% in the percentage fading)”. Regarding `CCN(c1ccccc1)c1ccc(N=C2C=C(NC(=O)C3=CCCC3)C(=O)C=C2NC(=O)NC)c(Cl)c1` [Dye No. 17 in Table B1], under setting [4], the Light fastness entry is listed as “.largecircle. (less than 20% in the percentage fading)”. In the case of `CCOCCN(CC)c1ccc(N=C2C=C(NC(=O)C3CC4CCC3C4)C(=O)C(Cl)=C2C)c(C)c1` (centres unmarked) [Dye No. 17 in Table C1], the Light fastness entry under setting [5] is on record as “.largecircle. (less than 20% in the percentage fading)”.

In the case of `CCN(CC)c1ccc(N=C2C=C(NC(=O)C3=CCC=CC3)C(=O)C(Cl)=C2C)cc1` [Dye No. 18 in Table B1], the Light fastness result under setting [4] is given as “.largecircle. (less than 20% in the percentage fading)”. Take `CCN(CC)c1ccc(N=C2C=C(NC(=O)C3CC4C=C(C)C3C4)C(=O)C(Cl)=C2C)c(C)c1` (centres unmarked) [Dye No. 18 in Table C1]: the Light fastness result under setting [5] is reported as “.largecircle. (less than 20% in the percentage fading)”. With `CCN(CCOC)c1ccc(N=C2C=C(NC(=O)C3=CCC=CC3)C(=O)C=C2NC(C)=O)c(NC(C)=O)c1` [Dye No. 19 in Table B1], the Light fastness entry under setting [4] was “.largecircle. (less than 20% in the percentage fading)”.

Turning to `CCOc1cc(N(CC)CC)c(OCC)cc1N=C1C=C(NC(=O)C2CC3C=C(C)C2C3)C(=O)C(Cl)=C1C` (centres unmarked) [Dye No. 19 in Table C1], the Light fastness result under setting [5] is recorded as “.largecircle. (less than 20% in the percentage fading)”.

Source of the values: patent publication US5260257A, “Thermal transfer sheet” (Dai Nippon Printing Co., Ltd., priority 1991, dated 1993).
